The nature of one data set: in vitro. Conditions: human.
Another data set concerns the target PXR (Homo sapiens (Human), UniProt O75469). Description: Human PXR activation assay (luciferase reporter gene assay, DPX2 cells). Type of data set: cell-based. Conditions: human. As to the method: A stably transformed tumor cell line (DPX2) was plated on 96-well microtiter plates. DPX2 cells harbor the human PXR gene (NR112) and a luciferase reporter gene linked to two promoters identified in the human CYP3A4 gene, namely XREM and PXRE. […] The number of viable cells was determined and the reporter gene activity was assessed. Positive control: […]
(In general: Reporter assays use an easily measured gene product as a stand-in for the process of interest.)

Each structure is given as a SMILES string. Read-outs that look alike come from different tables or passages of the source.

PXR, sequence (O75469 whole entry): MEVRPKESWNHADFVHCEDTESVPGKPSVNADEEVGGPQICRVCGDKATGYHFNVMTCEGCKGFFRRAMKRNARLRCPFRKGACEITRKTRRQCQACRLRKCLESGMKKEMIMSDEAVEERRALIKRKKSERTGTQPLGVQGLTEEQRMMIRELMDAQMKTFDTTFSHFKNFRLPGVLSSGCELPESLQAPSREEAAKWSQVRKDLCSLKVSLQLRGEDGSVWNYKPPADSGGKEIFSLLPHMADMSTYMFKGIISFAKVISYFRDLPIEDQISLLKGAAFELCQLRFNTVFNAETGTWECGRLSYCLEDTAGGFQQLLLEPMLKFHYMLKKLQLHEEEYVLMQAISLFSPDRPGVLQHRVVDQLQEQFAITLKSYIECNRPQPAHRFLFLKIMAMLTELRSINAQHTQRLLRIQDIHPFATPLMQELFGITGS

`O=C(NCc1c(F)cccc1F)c1cn2c(c(O)c1=O)C(=O)N1[C@@H]3CC[C@@H](C3)O[C@H]1C2` [Compound 46, (13aS)-N-(2,6-difluorobenzyl)-8-hydroxy-7,9-dioxo-2,3,4,5,7,9,13,13a-octahydro-2,5-methanopyrido[1′,2′:4,5]pyrazino[2,1-b][1,3]oxazepine-10-carboxamide] had a CC50 at 5 days in the data set “in vitro” (CC50 nM in MT-4) of 19300 nM. At PXR, this molecule came in with a maximal effect (Emax) at 24 h, 15 µM of 34%.

As to `O=C(NCc1c(F)cc(F)cc1F)c1cn2c(c(O)c1=O)C(=O)N1[C@H]3C[C@H](C3)[C@@H]1C2` (single isomer, unassigned) [Compound 97], the CC50 at 5 days in the data set “in vitro” (MT-4 cells, mock-infected, CC50 nM in MT-4, MT-4 cells, 5 days incubation) amounted to 17300 nM. Moreover, the maximal effect (Emax) at 24 h, 15 µM on PXR (15 μM, relative to maximum fold induction by 10 or 20 μM rifampicin, DPX2 cells, 24 hours, read-out: % Emax at 15 μM) was 9%.

In the data set “in vitro” (CC50 nM in MT-4), `O=C(NCc1cccc(Cl)c1Cl)c1cn2c(c(O)c1=O)C(=O)N1[C@H]3CC[C@H](C3)[C@@H]1C2` [Compound 60, (1R,4S,12aR)-N-(2,3-dichlorobenzyl)-7-hydroxy-6,8-dioxo-1,2,3,4,6,8,12,12a-octahydro-1,4-methanodipyrido[1,2-a:1′,2′-d]pyrazine-9-carboxamide] had a CC50 at 5 days of 3310 nM. The maximal effect (Emax) at 24 h, 15 µM at PXR was 3%.

As to `O=C(NCc1c(F)cc(F)cc1Cl)c1cn2c(c(O)c1=O)C(=O)N1[C@H]3CC[C@H](C3)[C@@H]1C2` [Compound 93, (1R,4S,12aR)-N-(2-chloro-4,6-difluorobenzyl)-7-hydroxy-6,8-dioxo-1,2,3,4,6,8,12,12a-octahydro-1,4-methanodipyrido[1,2-a:1′,2′-d]pyrazine-9-carboxamide], in “in vitro” (CC50 nM in MT-4), the CC50 at 5 days came to 6160 nM. Besides, the Emax at 24 h, 15 µM on PXR is 9%.

As for `O=C(NCc1ccc(F)c(F)c1)c1cn2c(c(O)c1=O)C(=O)N1[C@@H]3CC[C@@H](C3)O[C@H]1C2` [Compound 18, (2S,5R,13aS)-N-(3,4-difluorobenzyl)-8-hydroxy-7,9-dioxo-2,3,4,5,7,9,13,13a-octahydro-2,5-methanopyrido[1′,2′:4,5]pyrazino[2,1-b][1,3]oxazepine-10-carboxamide], in the data set “in vitro” (CC50 nM in MT-4), the CC50 at 5 days is 10300 nM. Besides, the maximal effect (Emax) at 24 h, 15 µM on PXR was 4%.

As for `O=C(NCc1ccc(F)cc1F)c1cn2c(c(O)c1=O)C(=O)N1C(C2)[N@]2CCC[C@H]1C2` (stereo partly drawn) [Compound 19, (1R,5S)-N-(2,4-difluorobenzyl)-8-hydroxy-7,9-dioxo-2,3,4,5,7,9, 13,13a-octahydro-1,5-methanopyrido[1′,2′:4,5]pyrazino[1,2-a][1,3]diazepine-10-carboxamide], in “in vitro” (CC50 nM in MT-4), the CC50 at 5 days is 38700 nM. On PXR, this molecule registered a maximal effect (Emax) at 24 h, 15 µM of 2%.

The molecule `O=C(NCc1c(F)cc(F)cc1F)c1cn2c(c(O)c1=O)C(=O)N1[C@@H]3C[C@H]([C@@H]1C2)C(F)(F)C3` [Compound 57, (1R,4R,12aR)-2,2-difluoro-7-hydroxy-6,8-dioxo-N-(2,4,6-trifluorobenzyl)-1,2,3,4,6,8,12,12a-octahydro-1,4-methanodipyrido[1,2-a:1′,2′-d]pyrazine-9-carboxamide] registered a CC50 at 5 days in the data set “in vitro” (CC50 nM in MT-4) of 11800 nM. This molecule had an Emax at 24 h, 15 µM at PXR of 3%.

As for `O=C(NCc1ccc(F)c(F)c1)c1cn2c(c(O)c1=O)C(=O)N1[C@H]3CC[C@H](C3)[C@@H]1C2` [Compound 66, (1R,4S,12aR)-N-(3,4-difluorobenzyl)-7-hydroxy-6,8-dioxo-1,2,3,4,6,8,12,12a-octahydro-1,4-methanodipyrido[1,2-a:1′,2′-d]pyrazine-9-carboxamide], the CC50 at 5 days in “in vitro” (CC50 nM in MT-4) worked out at 11800 nM. Besides, the Emax at 24 h, 15 µM on PXR came out at 0%.

In “in vitro” (CC50 nM in MT-4), `O=C(NCc1cccc(F)c1F)c1cn2c(c(O)c1=O)C(=O)N1[C@@H]3CC[C@@H](C3)O[C@H]1C2` [Compound 16, (2S,5R,13aS)-N-(2,3-difluorobenzyl)-8-hydroxy-7,9-dioxo-2,3,4,5,7,9,13,13a-octahydro-2,5-methanopyrido[1′,2′:4,5]pyrazino[2,1-b][1,3]oxazepine-10-carboxamide] had a CC50 at 5 days of 13600 nM. Moreover, at PXR, the Emax at 24 h, 15 µM was 17%.

A word on the Emax: it is the size of the effect at its maximum, as opposed to the concentration needed.

These data come from US9663528B2, “Substituted 1,2,3,4,6,8,12,12a-octahydro-1,4-methanodipyrido[1,2-a:1',2'-d]pyrazines and methods for treating viral infections” (priority 2012, dated 2017).
